Experimental data taken from patent US20140357512A1, “HISTONE DEACETYLASE (HDAC) BIOMARKERS IN MULTIPLE MYELOMA” (priority 2013, published 2014).

Tested on: human myeloma cell line MM.1S
Experiment: SILAC acetylated-lysine peptide profiling, HDAC inhibitor vs DMSO (light/heavy ratio)
Assay type: cell-based
Text: An embodiment of the invention comprises utilizing the SILAC method in order to quantitate changes in protein expression between two or more populations of cells. The SILAC method is a technique based on mass spectrometry that detects differences in protein abundance among samples using non-radioactive isotopic labeling. The SILAC method is known in the art, and described in detail in Ong et al., “Stable Isotope Labeling by Amino Acids in Cell Culture, SILAC, as a Simple and Accurate Approach to Expression Proteomics”, Molecular & Cellular Proteomics, vol. 1, pp. 376-386 (2002), which is incorporated herein by reference in its entirety.
Briefly, the SILAC method involves growing two populations of cells in cell culture. The first population of cells is grown in growth media containing normal amino acids (“normal media”). The second population of cells is grown in media lacking a standard essential amino acid (such as lysine), but is then supplemented with a non-radioactive, isotopically labeled form of that essential amino acid (such as lysine labeled with ^13C atoms, rather than normal ^12C atoms), which is called “heavy media”. When the two populations of cells are each growing in the medium, they incorporate the amino acids into all of their proteins. The growth of cells maintained in the heavy media is no different from that in normal media. All peptides containing the heavy amino acids are heavier than their normal counterparts. The cells from each of the two populations of cells are lysed. The lysates from each of the two cell populations are then combined. The combined cell lysates are then analyzed by mass spectrometry. Pairs of chemically identical peptides of different stable isotope composition can be differentiated in a mass spectrometer due to their difference in mass. The ratio of peak intensities in the mass spectrum for such peptide pairs reflects the abundance ratio for the two proteins.
This example describes SILAC studies that were performed to compare the effects of three different HDAC inhibitors (Compound A, Compound B, and tubastatin A) to a control on a human multiple myeloma cell line. The HDAC inhibitors were also compared amongst themselves to determine differences in their effects.
A human myeloma cell line MM.1S was grown using either ^12C (light) or ^13C (heavy) lysine containing culture medium. The “heavy” cells were treated with DMSO as the control, and the “light” cells were treated with a single HDAC inhibitor at 37° C. for 6 hours. The heavy and light cells were lysed, and the lysates were mixed in 1:1 ratio and digested with the protease trypsin. The acetylated lysine containing peptides (due to the action of the HDAC inhibitor) in the digested peptide pool were captured by a non-specific anti-acetylated lysine antibody cocktail (the antibodies identify both light and heavy acetylated peptides), and subjected to mass spectrometry analysis in order to identify thousands of individual peptides.
Thousands of peptides were identified in pairs (^12C and ^13C) due to their known mass differences. The amino acid sequence and quantitative ratio (Light/Heavy) of a given peptide in two differentially treated cell lysates were then determined and annotated with their possible protein (gene) sources.
As stated above, three HDAC inhibitors (Compound A, Compound B, and Tubastatin A) were used. Thus, the SILAC method was performed three times, with a different HDAC inhibitor compared to a control each time. Accordingly, there are three pairs of quantitative data in the table below, i.e., Compound A:DMSO, Compound B:DMSO, and Tubastatin A:DMSO. A cut-off of 1.30 fold of change (increase or decrease) was then used to determine “changed” or “+” in the table, and any peptides with a fold of change less than 1.3 fold were determined to be “unchanged” or “0” in the table. Those peptides that were not identified were marked as “NA” in the table. […]

O=C(NO)c1cnc(NC2(c3cccc(F)c3)CCCCC2)nc1 [Compound B, 2-((1-(3-fluorophenyl)cyclohexyl)amino)-N-hydroxypyrimidine-5-carboxamide]
light to heavy ratio (L/H ratio) of acetylated peptide, log 2 scale (NK(ac)[…] (SEQ ID NO: 237), Vesicle-associated membrane protein 8 [47], VAMP8): 0.00
light to heavy ratio (L/H ratio) of acetylated peptide, log 2 scale (NLDK(ac)[…] (SEQ ID NO: 159), Aspartate aminotransferase mitochondrial [94], GOT2): 0.00
L/H ratio of acetylated peptide (NLK(ac)NEITK (SEQ ID NO: 380), Isoform 1 of Coatomer subunit alpha [441], COPA): 0.40 log 2
L/H ratio of acetylated peptide (NLPFSVENK(ac)WSLLAK (SEQ ID NO: 382), Cytochrome c oxidase subunit 7C mitochondrial [34], COX7C): −0.87 log 2
L/H ratio of acetylated peptide ADKDYHFK(ac)[…] (SEQ ID NO: 61) (NPM1 [32], log 2 scale, drug vs DMSO): 0.00
L/H ratio of acetylated peptide GVTQFGNK(ac)[…] (SEQ ID NO: 18) (NUDT21 [23], log 2 scale, drug vs DMSO): 0.50
L/H ratio of acetylated peptide (NVQQTVSAK(ac)GPPEK(ac)R (SEQ ID NO: 416), Mediator of RNA polymerase II transcription subunit 6 [243:248], MED6): 0.49 log 2
L/H ratio of acetylated peptide (NVYK(ac)FELDTSER (SEQ ID NO: 444), Dolichyl-diphosphooligosaccharide--protein glycosyltransferase subunit 2 [460], RPN2): 0.54 log 2
light to heavy ratio (L/H ratio) of acetylated peptide FCLSK(ac)PGVYK (SEQ ID NO: 345) (Nodal modulator 1 [630], NOMO3, NOMO1, drug:DMSO): 0.59 log 2
light to heavy ratio (L/H ratio) of acetylated peptide […](ac)R (SEQ ID NO: 532) (Nucleosome assembly protein 1-like 1 [116], gene NAP1L1, inhibitor:DMSO): 0.00 log 2
L/H ratio of acetylated peptide PSHLTNK(ac)FEDK (SEQ ID NO: 65) (PDIA3 [214], log 2 scale, drug vs DMSO): 0.00
L/H ratio of acetylated peptide GEK(ac)FVMQEEFSR (SEQ ID NO: 64) (PDIA3 [335], log 2 scale, drug vs DMSO): 0.00
L/H ratio of acetylated peptide SLLGK(ac)DVLFLK (SEQ ID NO: 67) (PGK1 [91], log 2 scale, drug vs DMSO): 0.00
L/H ratio of acetylated peptide SIYGEK(ac)FEDENFILK (SEQ ID NO: 68) (PPIA [82], log 2 scale, drug vs DMSO): 0.00
L/H ratio of acetylated peptide VIFGLFGK(ac)TVPK (SEQ ID NO: 70) (PPIB [67], log 2 scale, drug vs DMSO): 0.00
L/H ratio of acetylated peptide TVPK(ac)[…] (SEQ ID NO: 69) (PPIB [71], log 2 scale, drug vs DMSO): 0.00
L/H ratio of acetylated peptide VIK(ac)[…] (SEQ ID NO: 71) (PPIB [98], log 2 scale, drug vs DMSO): 0.00
L/H ratio of acetylated peptide IYGFYDECK(ac)R (SEQ ID NO: 72) (PPP1CC [141], log 2 scale, drug vs DMSO): 0.00
light to heavy ratio (L/H ratio) of acetylated peptide TAWLDGK(ac)HVVFGK (SEQ ID NO: 592) (Peptidyl-prolyl cis-trans isomerase B [165], gene PPIB, inhibitor:DMSO): 0.00 log 2
light to heavy ratio (L/H ratio) of acetylated peptide FPDENFK(ac)LK (SEQ ID NO: 347) (Peptidyl-prolyl cis-trans isomerase C [123], PPIC, drug:DMSO): −1.00 log 2
light to heavy ratio (L/H ratio) of acetylated peptide HVVFGK(ac)VK (SEQ ID NO: 576) (Peptidylprolyl isomerase A (Cyclophilin A) (PPIA) pseudogene [141], gene PPIAP26, inhibitor:DMSO): 0.00 log 2
light to heavy ratio (L/H ratio) of acetylated peptide LAK(ac)YFFNK (SEQ ID NO: 604) (Periodic tryptophan protein 2 homolog [279], gene PWP2, inhibitor:DMSO): 0.00 log 2
light to heavy ratio (L/H ratio) of acetylated peptide […](ac)DELKK (SEQ ID NO: 346) (Poly [ADP-ribose] polymerase 1 [249], PARP1, drug:DMSO): 0.83 log 2
light to heavy ratio (L/H ratio) of acetylated peptide FVVEK(ac)AEQQK (SEQ ID NO: 263) (Prohibitin [202], PHB, drug:DMSO): 0.00 log 2
light to heavy ratio (L/H ratio) of acetylated peptide FEYK(ac)YSFK (SEQ ID NO: 340) (Protein ERGIC-53 [49], LMAN1, drug:DMSO): −0.52 log 2
light to heavy ratio (L/H ratio) of acetylated peptide HFAFK(ac)[…] (SEQ ID NO: 554) (Protein FAM3C [72], gene FAM3C, inhibitor:DMSO): 0.00 log 2
light to heavy ratio (L/H ratio) of acetylated peptide GYPTIK(ac)FFR (SEQ ID NO: 541) (Protein disulfide-isomerase [103], gene P4HB, inhibitor:DMSO): 0.00 log 2
light to heavy ratio (L/H ratio) of acetylated peptide THILLFLPK(ac)SVSDYDGK (SEQ ID NO: 297) (Protein disulfide-isomerase [263], P4HB, drug:DMSO): 0.00 log 2
light to heavy ratio (L/H ratio) of acetylated peptide VLVGK(ac)[…] (SEQ ID NO: 303) (Protein disulfide-isomerase [375], P4HB, drug:DMSO): 0.00 log 2
light to heavy ratio (L/H ratio) of acetylated peptide […](ac)K (SEQ ID NO: 286) (Protein disulfide-isomerase [385], P4HB, drug:DMSO): 0.00 log 2
light to heavy ratio (L/H ratio), log 2 scale, acetylated peptide VYK(ac)EMYK (SEQ ID NO: 777) (Putative annexin A2-like protein [148], gene ANXA2P2, drug:DMSO): 0.00
light to heavy ratio (L/H ratio), log 2 scale, acetylated peptide SVPHLQK(ac)VFDR (SEQ ID NO: 776) (Putative annexin A2-like protein [227], gene ANXA2P2, drug:DMSO): 0.00
